Measured values published in patent US10940139B2, “Compounds that interact with the Ras superfamily for the treatment of cancers, inflammatory diseases, rasopathies, and fibrotic disease” (Shy Therapeutics LLC, priority 2017, dated 2021).

Columns and labels:
[1] = tested on: IL6 production in RAW 264.7 macrophage cell line; assay: Mouse IL6 quantification assay (LPS-stimulated macrophages, ELISA); assay type: cell-based; settings: RAW264.7, RAW 264.7 murine leukemia virus transformed macrophage cell lines, LPS stimulation, read-out: IL-6 % Inhibition at 30 μM
[2] = tested on: TNFα production in RAW 264.7 macrophage cell line; assay: Mouse TNF alpha quantification assay (LPS-stimulated macrophages, ELISA); assay type: cell-based; settings: RAW264.7, RAW 264.7 murine leukemia virus transformed macrophage cell lines, LPS stimulation, read-out: TNF-α % Inhibition at 30 μM

## N#Cc1ncn(-c2nc(-c3ccccn3)nc3sc(-c4ccccc4)cc23)n1 [drawing 2132]
[1]
  inhibition at 30 µM: 76 to 100%
[2]
  inhibition at 30 µM: 76 to 100%

## Cc1nnc(C(Nc2nc(-c3ccccn3)nc3scc(-c4ccccc4)c23)c2ccccc2)n1C (stereo not shown) [drawing 2133]
[1]
  inhibition at 30 µM: 76 to 100%
[2]
  inhibition at 30 µM: 76 to 100%

## Cc1sc2nc(-c3ccccn3)nc(NCCc3nccn3C)c2c1-c1ccccc1 [drawing 2134]
[1]
  inhibition at 30 µM: 1 to 25%
[2]
  inhibition at 30 µM: 0%

## CCCNC(=O)CN1CCN(c2nc(-c3ccccn3)nc3sc(-c4ccccc4)cc23)CC1 [drawing 2135]
[1]
  inhibition at 30 µM: 76 to 100%
[2]
  inhibition at 30 µM: 76 to 100%

## CC(Nc1nc(-c2ccccn2)nc2scc(-c3ccccc3)c12)c1nncn1C (stereo not shown) [drawing 2138]
[1]
  inhibition at 30 µM: 1 to 25%
[2]
  inhibition at 30 µM: 1 to 25%

## c1ccc(-c2csc3nc(-c4ccccn4)nc(N4CCN(Cc5cccnc5)CC4)c23)cc1 [drawing 2139]
[1]
  inhibition at 30 µM: 76 to 100%
[2]
  inhibition at 30 µM: 51 to 75%

## c1ccc(-c2csc3nc(-c4ccccn4)nc(N4CCN(CC5CCCO5)CC4)c23)cc1 (stereo not shown) [drawing 2140]
[1]
  inhibition at 30 µM: 51 to 75%
[2]
  inhibition at 30 µM: 26 to 50%

## CN(Cc1cnn(C)c1)c1nc(-c2ccccn2)nc2scc(-c3ccccc3)c12 [drawing 2141]
[1]
  inhibition at 30 µM: 76 to 100%
[2]
  inhibition at 30 µM: 26 to 50%

## CN(CCCc1n[nH]c(N)c1C#N)c1nc(-c2ccccn2)nc2sc(-c3ccccc3)cc12 [drawing 2142]
[1]
  inhibition at 30 µM: 76 to 100%
[2]
  inhibition at 30 µM: 51 to 75%

## O=C(CN1CCN(c2nc(-c3ccccn3)nc3sc(-c4ccccc4)cc23)CC1)N1CCCC1 [drawing 2143]
[1]
  inhibition at 30 µM: 76 to 100%
[2]
  inhibition at 30 µM: 76 to 100%

## CNC(=O)CN1CCN(c2nc(-c3ccccn3)nc3scc(-c4ccccc4)c23)CC1 [drawing 2144]
[1]
  inhibition at 30 µM: 1 to 25%
[2]
  inhibition at 30 µM: 1 to 25%

## O=S1(=O)CCC(N2CCN(c3nc(-c4ccccn4)nc4scc(-c5ccccc5)c34)CC2)C1 (stereo not shown) [drawing 2145]
[1]
  inhibition at 30 µM: 1 to 25%
[2]
  inhibition at 30 µM: 1 to 25%

## CON(C)c1nc(-c2ccccn2)nc2scc(-c3ccccc3)c12 [drawing 2147]
[1]
  inhibition at 30 µM: 26 to 50%
[2]
  inhibition at 30 µM: 1 to 25%

## O=C(CN1CCN(c2nc(-c3ccccn3)nc3scc(-c4ccccc4)c23)CC1)N1CCCCC1 [drawing 2148]
[1]
  inhibition at 30 µM: 26 to 50%
[2]
  inhibition at 30 µM: 1 to 25%

## O=C(CNc1nc(-c2ccccn2)nc2scc(-c3ccccc3)c12)NC1CC1 [drawing 2149]
[1]
  inhibition at 30 µM: 26 to 50%
[2]
  inhibition at 30 µM: 26 to 50%

## CCN(CC)C(=O)CN1CCN(c2nc(-c3ccccn3)nc3scc(-c4ccccc4)c23)CC1 [drawing 2150]
[1]
  inhibition at 30 µM: 76 to 100%
[2]
  inhibition at 30 µM: 51 to 75%

## CC(C)CNC(=O)CN1CCN(c2nc(-c3ccccn3)nc3scc(-c4ccccc4)c23)CC1 [drawing 2151]
[1]
  inhibition at 30 µM: 76 to 100%
[2]
  inhibition at 30 µM: 26 to 50%

## O=S1(=O)CCC(Nc2nc(-c3ccccn3)nc3scc(-c4ccccc4)c23)C1 (stereo not shown) [drawing 2152]
[1]
  inhibition at 30 µM: 1 to 25%
[2]
  inhibition at 30 µM: 0%

## c1ccc(-c2csc3nc(-c4ccccn4)nc(N4CCN(CCN5CCCC5)CC4)c23)cc1 [drawing 2153]
[1]
  inhibition at 30 µM: 26 to 50%
[2]
  inhibition at 30 µM: 0%

## OC1CCCN(c2nc(-c3ccccn3)nc3scc(-c4ccccc4)c23)C1 (stereo not shown) [drawing 2154]
[1]
  inhibition at 30 µM: 26 to 50%
[2]
  inhibition at 30 µM: 1 to 25%

## c1ccc(-c2csc3nc(-c4ccccn4)nc(N4CCOCC4)c23)cc1 [drawing 2155]
[1]
  inhibition at 30 µM: 1 to 25%
[2]
  inhibition at 30 µM: 1 to 25%

## OC1CCN(c2nc(-c3ccccn3)nc3scc(-c4ccccc4)c23)CC1 [drawing 2156]
[1]
  inhibition at 30 µM: 26 to 50%
[2]
  inhibition at 30 µM: 1 to 25%

## O=C(CN1CCN(c2nc(-c3ccccn3)nc3scc(-c4ccccc4)c23)CC1)N1CCCC1 [drawing 2157]
[1]
  inhibition at 30 µM: 1 to 25%
[2]
  inhibition at 30 µM: 1 to 25%

## O=C(CN1CCN(c2nc(-c3ccccn3)nc3scc(-c4ccccc4)c23)CC1)NC1CC1 [drawing 2158]
[1]
  inhibition at 30 µM: 76 to 100%
[2]
  inhibition at 30 µM: 26 to 50%

## c1ccc(-c2csc3nc(-c4ccccn4)nc(NN4CCOCC4)c23)cc1 [drawing 2159]
[1]
  inhibition at 30 µM: 51 to 75%
[2]
  inhibition at 30 µM: 26 to 50%

## NC(=O)C1CCCN(c2nc(-c3ccccn3)nc3scc(-c4ccccc4)c23)C1 (stereo not shown) [drawing 2160]
[1]
  inhibition at 30 µM: 1 to 25%
[2]
  inhibition at 30 µM: 1 to 25%

## COCCNc1nc(-c2ccccn2)nc2scc(-c3ccccc3)c12 [drawing 2161]
[1]
  inhibition at 30 µM: 76 to 100%
[2]
  inhibition at 30 µM: 76 to 100%

## CC(=O)N1CCN(c2nc(-c3ccccn3)nc3scc(-c4ccccc4)c23)CC1 [drawing 2162]
[1]
  inhibition at 30 µM: 26 to 50%
[2]
  inhibition at 30 µM: 26 to 50%

## O=C1CCN(c2nc(-c3ccccn3)nc3scc(-c4ccccc4)c23)CC1 [drawing 2163]
[1]
  inhibition at 30 µM: 1 to 25%
[2]
  inhibition at 30 µM: 1 to 25%

## NC(=O)C1CCN(c2nc(-c3ccccn3)nc3scc(-c4ccccc4)c23)CC1 [drawing 2164]
[1]
  inhibition at 30 µM: 1 to 25%
[2]
  inhibition at 30 µM: 1 to 25%

## Cc1sc2nc(N)nc(O)c2c1C [drawing 2165]
[1]
  inhibition at 30 µM: 1 to 25%
[2]
  inhibition at 30 µM: 1 to 25%

## COc1ccnc(-c2nc(O)c3ccsc3n2)c1 [drawing 2166]
[1]
  inhibition at 30 µM: 1 to 25%
[2]
  inhibition at 30 µM: 1 to 25%

## COc1cccc(N2CCN(C(=O)c3csc4c(O)nc(-c5ccccn5)nc34)CC2)c1 [drawing 2167]
[1]
  inhibition at 30 µM: 26 to 50%
[2]
  inhibition at 30 µM: 0%

## Cc1ccccc1N1CCN(C(=O)c2csc3c(O)nc(-c4ccccn4)nc23)CC1 [drawing 2168]
[1]
  inhibition at 30 µM: 51 to 75%
[2]
  inhibition at 30 µM: 1 to 25%

## O=C(c1csc2c(O)nc(-c3ccccn3)nc12)N1CCN(Cc2cccc(O)c2)CC1 [drawing 2169]
[1]
  inhibition at 30 µM: 26 to 50%
[2]
  inhibition at 30 µM: 1 to 25%

## O=C(c1csc2c(O)nc(-c3ccccn3)nc12)N1CCOC(c2cccc(F)c2)C1 (stereo not shown) [drawing 2170]
[1]
  inhibition at 30 µM: 26 to 50%
[2]
  inhibition at 30 µM: 1 to 25%

## O=C(c1csc2c(O)nc(-c3ccccn3)nc12)N1CCOC(c2nccs2)C1 (stereo not shown) [drawing 2171]
[1]
  inhibition at 30 µM: 51 to 75%
[2]
  inhibition at 30 µM: 1 to 25%

## COc1ccnc(-c2nc(O)c3c(Br)csc3n2)c1 [drawing 2172]
[1]
  inhibition at 30 µM: 76 to 100%
[2]
  inhibition at 30 µM: 26 to 50%

## COc1ccc(CCN(C)C(=O)c2csc3nc(-c4ccccn4)nc(N4CCOCC4)c23)cn1 [drawing 2173]
[1]
  inhibition at 30 µM: 26 to 50%
[2]
  inhibition at 30 µM: 0%

## COc1ncc(CCNC(=O)c2csc3nc(-c4ccccn4)nc(N4CCOCC4)c23)cn1 [drawing 2175]
[1]
  inhibition at 30 µM: 1 to 25%
[2]
  inhibition at 30 µM: 0%

## O=C(NCCc1cncs1)c1csc2nc(-c3ccccn3)nc(N3CCOCC3)c12 [drawing 2176]
[1]
  inhibition at 30 µM: 1 to 25%
[2]
  inhibition at 30 µM: 0%

## CC(C)(C(=O)Nc1ccnc(-c2ccccn2)n1)c1ccc(C#N)cc1 [drawing 2177]
[1]
  inhibition at 30 µM: 1 to 25%
[2]
  inhibition at 30 µM: 0%

## CC(C)(C(=O)Nc1nc(-c2ccccn2)nc2sccc12)c1ccc(C#N)cc1 [drawing 2178]
[1]
  inhibition at 30 µM: 76 to 100%
[2]
  inhibition at 30 µM: 1 to 25%

## O=C(c1csc2c(O)nc(-c3ccccn3)nc12)N1CCN(c2cccc(F)c2)CC1 [drawing 2179]
[1]
  inhibition at 30 µM: 76 to 100%
[2]
  inhibition at 30 µM: 0%

## O=C(c1csc2c(O)nc(-c3ccccn3)nc12)N1CCN(c2ccc(F)cc2)CC1 [drawing 2180]
[1]
  inhibition at 30 µM: 26 to 50%
[2]
  inhibition at 30 µM: 0%

## N#Cc1cccc(N2CCN(C(=O)c3csc4c(O)nc(-c5ccccn5)nc34)CC2)c1 [drawing 2181]
[1]
  inhibition at 30 µM: 51 to 75%
[2]
  inhibition at 30 µM: 0%

## N#Cc1ccc(N2CCN(C(=O)c3csc4c(O)nc(-c5ccccn5)nc34)CC2)cc1 [drawing 2182]
[1]
  inhibition at 30 µM: 26 to 50%
[2]
  inhibition at 30 µM: 0%

## COc1cc(OC)cc(N2CCN(C(=O)c3csc4c(O)nc(-c5ccccn5)nc34)CC2)c1 [drawing 2183]
[1]
  inhibition at 30 µM: 26 to 50%
[2]
  inhibition at 30 µM: 1 to 25%

## COc1ccc(N2CCN(C(=O)c3csc4c(O)nc(-c5ccccn5)nc34)CC2)c(OC)c1 [drawing 2184]
[1]
  inhibition at 30 µM: 76 to 100%
[2]
  inhibition at 30 µM: 0%

## O=C(c1csc2c(O)nc(-c3ccccn3)nc12)N1CCN(c2ccc(F)cc2F)CC1 [drawing 2185]
[1]
  inhibition at 30 µM: 76 to 100%
[2]
  inhibition at 30 µM: 0%

## CC1CN(c2ccccc2)CCN1C(=O)c1csc2c(O)nc(-c3ccccn3)nc12 (stereo not shown) [drawing 2186]
[1]
  inhibition at 30 µM: 76 to 100%
[2]
  inhibition at 30 µM: 26 to 50%

## O=C(c1csc2c(O)nc(-c3ccccn3)nc12)N1CCN(Cc2ccccc2)CC1 [drawing 2187]
[1]
  inhibition at 30 µM: 76 to 100%
[2]
  inhibition at 30 µM: 0%

## COc1cccc(CN2CCN(C(=O)c3csc4c(O)nc(-c5ccccn5)nc34)CC2)c1 [drawing 2188]
[1]
  inhibition at 30 µM: 51 to 75%
[2]
  inhibition at 30 µM: 0%

## O=C(c1csc2c(O)nc(-c3ccccn3)nc12)N1CCN(Cc2ccc(O)cc2)CC1 [drawing 2189]
[1]
  inhibition at 30 µM: 1 to 25%
[2]
  inhibition at 30 µM: 1 to 25%

## O=C(c1csc2c(O)nc(-c3ccccn3)nc12)N1CCN(Cc2ccc(O)c(Cl)c2)CC1 [drawing 2190]
[1]
  inhibition at 30 µM: 76 to 100%
[2]
  inhibition at 30 µM: 1 to 25%

## O=C(c1csc2c(O)nc(-c3ccccn3)nc12)N1CCOC(c2ccccc2)C1 (stereo not shown) [drawing 2191]
[1]
  inhibition at 30 µM: 51 to 75%
[2]
  inhibition at 30 µM: 0%

## COc1ccccc1C1CN(C(=O)c2csc3c(O)nc(-c4ccccn4)nc23)CCO1 (stereo not shown) [drawing 2192]
[1]
  inhibition at 30 µM: 76 to 100%
[2]
  inhibition at 30 µM: 51 to 75%

## COc1ccc(C2CN(C(=O)c3csc4c(O)nc(-c5ccccn5)nc34)CCO2)cc1 (stereo not shown) [drawing 2193]
[1]
  inhibition at 30 µM: 76 to 100%
[2]
  inhibition at 30 µM: 1 to 25%

## O=C(c1csc2c(O)nc(-c3ccccn3)nc12)N1CCOC(c2ccccc2Cl)C1 (stereo not shown) [drawing 2194]
[1]
  inhibition at 30 µM: 76 to 100%
[2]
  inhibition at 30 µM: 1 to 25%

## O=C(c1csc2c(O)nc(-c3ccccn3)nc12)N1CCOC(Cc2ccccc2)C1 (stereo not shown) [drawing 2195]
[1]
  inhibition at 30 µM: 76 to 100%
[2]
  inhibition at 30 µM: 0%

## COc1ccccc1C1CN(C(=O)c2csc3c(O)nc(-c4ccccn4)nc23)CCN1 (stereo not shown) [drawing 2196]
[1]
  inhibition at 30 µM: 26 to 50%
[2]
  inhibition at 30 µM: 0%

## COc1cccc(C2CN(C(=O)c3csc4c(O)nc(-c5ccccn5)nc34)CCN2)c1 (stereo not shown) [drawing 2197]
[1]
  inhibition at 30 µM: 76 to 100%
[2]
  inhibition at 30 µM: 1 to 25%
